# Tests used:
# [1] = target: T1, 14-3-3ζ full length His-tag (Homo sapiens, UniProt P63104); test: biochemical
# T1 sequence (P63104 1-245): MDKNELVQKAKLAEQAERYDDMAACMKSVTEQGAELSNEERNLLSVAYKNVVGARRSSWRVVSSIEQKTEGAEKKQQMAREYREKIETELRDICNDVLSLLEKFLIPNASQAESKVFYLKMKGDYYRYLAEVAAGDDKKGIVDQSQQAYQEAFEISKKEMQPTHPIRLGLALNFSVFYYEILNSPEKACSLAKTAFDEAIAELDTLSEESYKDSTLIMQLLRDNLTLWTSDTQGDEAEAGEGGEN
# [2] = HPLC-based LogD determination; details: for tR (retention time used for LogD determination): HPLC-UV 254 nm, Nucleodur C18 Gravity, 50 mM ammonium acetate pH 7.4 (A) / acetonitrile (B), 0 min 0 % B to 20 min 95 % B, 1 mL/min, acetylated peptides, triplicates
# [3] = target: T1, 14-3-3ζ full length His-tag; test: biochemical; assay type: binding; details: for BEI (binding efficiency index): BEI = pKd/(MW × 10^–3), pKd from direct FP of FITC-labelled peptides
# [4] = design: method as in earlier work; details: octanol-water partitioning, received from literature; ref 3–5 (supplement); cited from earlier work
# Excerpt: page 19: Table S8: Reference compounds used to establish a calibration curve for LogD determination.
Structure (SMILES),tR (retention time used for LogD determination) [2],chromatographic logD ([2]; pH 7.4),Kd [3],further results
CC(=O)NCC(=O)N[C@]1(C)CCCCCCCC[C@@H](C(=O)N[C@@H](CC(C)C)C(=O)N[C@@H](CC(=O)O)C(=O)N[C@@H](CC(C)C)C(N)=O)NC(=O)[C@H](CC(=O)O)NC(=O)[C@H](CC(C)C)NC1=O [compound 9],12.35±0.003 min,1.01 ± 0.031,–,Ki [1]: > 31600 nM
CC(C)C[C@H](NC(=O)[C@H](CC(=O)O)NC(=O)[C@H](CC(C)C)NC(=O)[C@]1(C)CCCCCCCC[C@@](C)(NC(=O)CNC(=O)[C@H](CCC(N)=O)NC(=O)COCCOCCNC(=S)Nc2ccc3c(c2)C(=O)OC32c3ccc(O)cc3Oc3cc(O)ccc32)C(=O)N[C@@H](CC(C)C)C(=O)N[C@@H](CC(=O)O)C(=O)N1)C(=O)N[C@@H](C)C(=O)N[C@@H](C)C(N)=O [S430A],–,–,72 ± 5 nM,–
"COCCc1ccc(OCC(O)CNC(C)C)cc1 (stereo not drawn) [Metoprolol, reference compound]",10.21±0.024 min,–,–,LogD of reference compound [4]: -0.06
CC(=O)NCC(=O)N[C@]1(C)CCCCCCCC[C@@](C)(C(=O)N[C@@H](CC(C)C)C(=O)N[C@@H](CC(=O)O)C(=O)N[C@@H](CC(C)C)C(N)=O)NC(=O)[C@H](CC(=O)O)NC(=O)[C@H](CC(C)C)NC1=O [compound 5],12.75±0.003 min,1.26,–,Δlog D relative to 7 (H/H) ([2]; pH 7.4): 0.63
CC(C)C[C@@H]1NC(=O)[C@](C)(NC(=O)CNC(=O)[C@H](CCC(N)=O)NC(=O)COCCOCCNC(=S)Nc2ccc3c(c2)C(=O)OC32c3ccc(O)cc3Oc3cc(O)ccc32)CCCCCCCC[C@@](C)(C(=O)N[C@@H](CC(C)C)C(=O)N[C@@H](CC(=O)O)C(N)=O)NC(=O)[C@H](CC(=O)O)NC1=O [compound 4],–,–,> 100000 nM,BEI (binding efficiency index) [3]: 2.86
"COc1ccc([C@@H]2Sc3ccccc3N(CCN(C)C)C(=O)[C@@H]2OC(C)=O)cc1 [Diltiazem, reference compound]",15.31±0.002 min,–,–,LogD of reference compound [4]: 2.70
CC[C@@]1(NC(=O)CNC(C)=O)CCCCCCCC[C@@](CC)(C(=O)N[C@@H](CC(C)C)C(=O)N[C@@H](CC(=O)O)C(=O)N[C@@H](CC(C)C)C(N)=O)NC(=O)[C@H](CC(=O)O)NC(=O)[C@H](CC(C)C)NC1=O [compound 12],12.92±0.001 min,1.35,–,Δlog D relative to 5 (Me/Me) ([2]; pH 7.4): 0.09
CC(=O)N[C@@H](CCC(N)=O)C(=O)NCC(=O)N[C@]1(C)CCCCCCCC[C@@](C)(C(=O)N[C@@H](CC(C)C)C(=O)N[C@@H](CC(=O)O)C(=O)N[C@@H](CC(C)C)C(=O)N[C@@H](C)C(=O)N[C@@H](CO)C(N)=O)NC(=O)[C@H](CC(=O)O)NC(=O)[C@H](CC(C)C)NC1=O [compound 1],12.58±0.197 min,1.15 ± 0.068,–,–
CC(C)C[C@H](NC(=O)[C@H](CC(=O)O)NC(=O)[C@H](CC(C)C)NC(=O)[C@]1(C)CCCCCCCC[C@@](C)(NC(=O)CNC(=O)[C@H](CCC(N)=O)NC(=O)COCCOCCNC(=S)Nc2ccc3c(c2)C(=O)OC32c3ccc(O)cc3Oc3cc(O)ccc32)C(=O)N[C@@H](CC(C)C)C(=O)N[C@@H](CC(=O)O)C(=O)N1)C(N)=O [compound 3],–,–,2880 nM,BEI (binding efficiency index) [3]: 3.66
CC(=O)NCC(=O)N[C@@H]1CCCCCCCC[C@@](C)(C(=O)N[C@@H](CC(C)C)C(=O)N[C@@H](CC(=O)O)C(=O)N[C@@H](CC(C)C)C(N)=O)NC(=O)[C@H](CC(=O)O)NC(=O)[C@H](CC(C)C)NC1=O [compound 8],12.37±0.003 min,–,–,LogD ([2]; pH 7.4): 1.03±0.031
CC(C)C[C@H](NC(=O)[C@H](CC(=O)O)NC(=O)[C@H](CC(C)C)NC(=O)[C@]1(C)CCCCCCCC[C@@](C)(NC(=O)COCCOCCNC(=S)Nc2ccc3c(c2)C(=O)OC32c3ccc(O)cc3Oc3cc(O)ccc32)C(=O)N[C@@H](CC(C)C)C(=O)N[C@@H](CC(=O)O)C(=O)N1)C(N)=O [compound 6],–,–,12300 nM,BEI (binding efficiency index) [3]: 3.70
CC(=O)NCC(=O)N[C@@H]1CCCCCCCC[C@@H](C(=O)N[C@@H](CC(C)C)C(=O)N[C@@H](CC(=O)O)C(=O)N[C@@H](CC(C)C)C(N)=O)NC(=O)[C@H](CC(=O)O)NC(=O)[C@H](CC(C)C)NC1=O [compound 7],11.70±0.007 min,0.63 ± 0.019,–,–
CC[C@@]1(NC(=O)CNC(C)=O)CCCCCCCC[C@@](C)(C(=O)N[C@@H](CC(C)C)C(=O)N[C@@H](CC(=O)O)C(=O)N[C@@H](CC(C)C)C(N)=O)NC(=O)[C@H](CC(=O)O)NC(=O)[C@H](CC(C)C)NC1=O [compound 11],12.88±0.003 min,1.33 ± 0.041,–,–
CC[C@@]1(C(=O)N[C@@H](CC(C)C)C(=O)N[C@@H](CC(=O)O)C(=O)N[C@@H](CC(C)C)C(N)=O)CCCCCCCC[C@@](C)(NC(=O)CNC(C)=O)C(=O)N[C@@H](CC(C)C)C(=O)N[C@@H](CC(=O)O)C(=O)N1 [compound 10],12.78±0.009 min,1.28 ± 0.04,–,–
"CC(CCc1ccccc1)NCC(O)c1ccc(O)c(C(N)=O)c1 (stereo not drawn) [Labetolol, reference compound]",12.14±0.010 min,–,–,–
CC(C)C[C@H](NC(=O)[C@H](CC(=O)O)NC(=O)[C@H](CC(C)C)NC(=O)[C@]1(C)CCCCCCCC[C@@](C)(NC(=O)CNC(=O)[C@H](CCC(N)=O)NC(=O)COCCOCCNC(=S)Nc2ccc3c(c2)C(=O)OC32c3ccc(O)cc3Oc3cc(O)ccc32)C(=O)N[C@@H](CC(C)C)C(=O)N[C@@H](CC(=O)O)C(=O)N1)C(=O)N[C@@H](C)C(N)=O [compound 2],–,–,355 nM,BEI (binding efficiency index) [3]: 4.07

# Reference: article PMC7057854, “Adapting free energy perturbation simulations for large macrocyclic ligands: how to dissect contributions from direct binding and free ligand flexibility” (Chemical Science, 2020)
